Laboratory results published in patent US8901035B2, “Herbicidal compositions comprising 4-amino-3-chloro-5-fluoro-6-(4-chloro-2-fluoro-3-methoxyphenyl) pyridine-2-carboxylic acid or a derivative thereof and cellulose biosynthesis inhibitor herbicides” (Dow AgroSciences LLC, priority 2012, dated 2014).

Assays:
Type in all cases: in vivo
[1] = system: Digitaria sanguinalis (L.) Scop. (DIGSA); experiment: Postemergence foliar-applied herbicidal mixtures, weed control in direct seeded rice (greenhouse)
Text: (§1) Seeds or nutlets of the desired test plant species were planted in a soil matrix prepared by mixing a loam or sandy loam soil (e.g., 28.6 percent silt, 18.8 percent clay, and 52.6 percent sand, with a pH of about 5.8 and an organic matter content of about 1.8 percent) and calcareous grit in an 80 to 20 ratio. The soil matrix was contained in plastic pots with a volume of 1 quart and a surface area of 83.6 square centimeters (cm^2). When required to ensure good germination and healthy plants, a fungicide treatment and/or other chemical or physical treatment was applied. The plants were grown for 8-22 days in a greenhouse with an approximate 14 h photoperiod which was maintained at about 29° C. during the day and 26° C. during the night. Nutrients (Peters Excel® 15-5-15 5-Ca 2-Mg and iron chelate) were applied in the irrigation solution as needed and water was added on a regular basis. Supplemental lighting was provided with overhead metal halide 1000-Watt lamps as necessary. The plants were employed for testing when they reached the first through fourth true leaf stage.
(§2) Treatments consisted of the acid or esters of 4-amino-3-chloro-5-fluoro-6-(4-chloro-2-fluoro-3-methoxy-phenyl) pyridine-2-carboxylic acid (Compound A), each formulated as an SC (suspension concentrate), and various herbicidal components alone and in combination. Forms of compound A were applied on an acid equivalent basis.
(§3) Other herbicidal components were applied on an active ingredient basis and included cellulose biosynthesis-inhibiting (CBI) herbicides isoxaben formulated as Gallery® 75DF and indaziflam formulated as Specticle® 20WSP.
(§4) Treatment requirements were calculated based upon the rates being tested, the concentration of active ingredient or acid equivalent in the formulation, and a 12 mL application volume at a rate of 187 L/ha.
(§5) For treatments comprised of formulated compounds, measured amounts of compounds were placed individually in 25 mL glass vials and diluted in a volume of 1.25% (v/v) Agri-Dex® crop oil concentrated to obtain 12× stock solutions. […] Application solutions were prepared by adding an appropriate amount of each stock solution (e.g., 1 mL) and diluted to the appropriate final concentrations with the addition of 10 mL of an aqueous mixture of 1.25% (v/v) crop oil concentrate so that the final spray solutions contained 1.25+/−0.05% (v/v) crop oil concentrate.
(§6) All stock solutions and applications solutions were visually inspected for compound compatibility prior to application. Spray solutions were applied to the plant material with an overhead Mandel track sprayer equipped with a 8002E nozzles calibrated to deliver 187 L/ha over an application area of 0.503 m^2 at a spray height of 18 to 20 inches (46 to 50 cm) above average plant canopy height. Control plants were sprayed in the same manner with the solvent blank.
(§7) The treated plants and control plants were placed in a greenhouse as described above and watered by sub-irrigation to prevent wash-off of the test compounds. After approximately 3 weeks, the condition of the test plants as compared with that of the untreated plants was determined visually and scored on a scale of 0 to 100 percent where 0 corresponds to no injury or growth inhibition and 100 corresponds to complete kill.
(§8) Colby's equation was used to determine the herbicidal effects expected from the mixtures (Colby, S. R. 1967. Calculation of the synergistic and antagonistic response of herbicide combinations. Weeds 15:20-22).
(§9) The following equation was used to calculate the expected activity of mixtures containing two active ingredients, A and B: Expected=A+B−(A×B/100)
(§10) A=observed efficacy of active ingredient A at the same concentration as used in the mixture.
(§11) B=observed efficacy of active ingredient B at the same concentration as used in the mixture.

[2] = system: Leptochloa chinensis (L.) Nees (LEFCH); experiment: as above
Text: as §1, §2, §3, §4, §5, §6, §7, §8, §9, §10, §11

[3] = system: Brachiaria platyphylla (Griseb.) Nash or Urochloa platyphylla (Nash) R.D. Webster (BRAPP); experiment: as above
Text: as §1, §2, §3, §4, §5, §6, §7, §8, §9, §10, §11

[4] = system: Ipomoea hederacea (L.) Jacq. (IPOHE); experiment: Pre-emergence soil-applied herbicidal mixtures for weed control (greenhouse)
Text: (§12) Seeds or nutlets of the desired test plant species were planted in a soil matrix prepared by mixing a loam soil (e.g., 32 percent silt, 23 percent clay, and 45 percent sand, with a pH of about 6.5 and an organic matter content of about 1.9 percent) and calcareous grit in an 80 to 20 ratio. The soil matrix was contained in plastic pots with a volume of 1 quart and a surface area of 83.6 square centimeters (cm^2).
(§13) Treatments consisted of the benzyl ester of 4-amino-3-chloro-5-fluoro-6-(4-chloro-2-fluoro-3-methoxy-phenyl)pyridine-2-carboxylic acid (compound A) formulated as an SC (suspension concentrate) and various herbicidal components alone and in combination. Forms of compound A were applied on an acid equivalent basis.
(§14) Other herbicidal components were applied on an acid equivalent or active ingredient basis and included the cellulose biosynthesis inhibiting herbicides, isoxaben formulated as Gallery® 75DF and indaziflam formulated as Specticle® 20WSP.
as §4
as §5, with “oil concentrate (COC)” for “oil concentrated”, “(v/v) COC” for “(v/v) crop oil concentrate”, “contained 1.25%” for “contained 1.25+/−0.05%”, “(v/v) COC.” for “(v/v) crop oil concentrate.”
as §6, with “soil” for “plant material”, “18” for “18 to 20”, “(46” for “(46 to 50”, “pot” for “plant canopy”, “pots” for “plants”
(§15) The treated and control pots were placed in a greenhouse and top watered as needed. When required to ensure good germination and healthy plants, a fungicide treatment and/or other chemical or physical treatment was applied. The pots were maintained in a greenhouse with an approximate 14 hr. photoperiod which was maintained at about 29° C. during the day and 26° C. during the night. Nutrients (Peters® Excel 15-5-15 5-Ca 2-Mg) were applied in the irrigation solution as needed and water was added on a regular basis. Supplemental lighting was provided with overhead metal halide 1000-Watt lamps as necessary. After approximately 4 weeks, the condition of the test plants as compared with that of the untreated plants was determined visually and scored on a scale of 0 to 100 percent where 0 corresponds to no injury or growth inhibition and 100 corresponds to complete kill.
as §8, §9, §10, §11

[5] = system: Xanthium strumarium L. (XANST); experiment: as above
Text: as §12, §13, §14, §4
as §5, with “oil concentrate (COC)” for “oil concentrated”, “(v/v) COC” for “(v/v) crop oil concentrate”, “contained 1.25%” for “contained 1.25+/−0.05%”, “(v/v) COC.” for “(v/v) crop oil concentrate.”
as §6, with “soil” for “plant material”, “18” for “18 to 20”, “(46” for “(46 to 50”, “pot” for “plant canopy”, “pots” for “plants”
as §15, §8, §9, §10, §11

[6] = system: Setaria faberi Herrm. (SETFA); experiment: as above; settings: Indaziflam 95 g ai/ha alone
Text: as §12, §13, §14, §4
as §5, with “oil concentrate (COC)” for “oil concentrated”, “(v/v) COC” for “(v/v) crop oil concentrate”, “contained 1.25%” for “contained 1.25+/−0.05%”, “(v/v) COC.” for “(v/v) crop oil concentrate.”
as §6, with “soil” for “plant material”, “18” for “18 to 20”, “(46” for “(46 to 50”, “pot” for “plant canopy”, “pots” for “plants”
as §15, §8, §9, §10, §11

[7] = Compound A Acid 5.3 g ae/ha alone
[8] = Compound A Acid 8.75 g ae/ha alone
[9] = Compound A Acid 10.6 g ae/ha alone
[10] = Compound A Acid 4.38 g ae/ha alone

Compound: COc1c(Cl)ccc(-c2nc(C(=O)O)c(Cl)c(N)c2F)c1F [Compound A Acid, 4-amino-3-chloro-6-(4-chloro-2-fluoro-3-methoxyphenyl)-5-fluoropyridine-2-carboxylic acid]
- Visual Weed Control (%) - 21 DAA Obs [1, 7]: 20%
- Visual Weed Control (%) - 20 DAA Obs [1, 8]: 45%
- Visual Weed Control (%) - 21 DAA Obs [1, 9]: 30%
- Visual Weed Control (%) - 20 DAA Obs ([1]; Compound A Acid 17.5 g ae/ha alone): 50%
- Visual Weed Control (%) - 21 DAA Obs ([1]; Compound A Acid 21.2 g ae/ha alone): 35%
- Visual Weed Control (%) - 20 DAA Obs [2, 10]: 15%
- Visual Weed Control (%) - 20 DAA Obs [3, 10]: 75%
- Visual Weed Control (%) - 21 DAA Obs [3, 7]: 60%
- Visual Weed Control (%) - 20 DAA Obs [3, 8]: 80%
- Visual Weed Control (%) - 21 DAA Obs [3, 9]: 85%

Compound: Cc1ccc2c(c1)[C@H](Nc1nc(N)nc(C(C)F)n1)[C@@H](C)C2 (stereo partly drawn) [Indaziflam, N-[(1R,2S)-2,3-dihydro-2,6-dimethyl-1H-inden-1-yl]-6-(1-fluoroethyl)-1,3,5-triazine-2,4-diamine, reference compound]
- Visual Weed Control (%) - 21 DAA Obs ([1]; Indaziflam 21 g ai/ha alone): 50%
- Visual Weed Control (%) - 21 DAA Obs ([1]; Indaziflam 42 g ai/ha alone): 45%
- Visual Weed Control (%) - 21 DAA Obs ([2]; Indaziflam 42 g ai/ha alone): 70%
- Visual Weed Control (%) - 21 DAA Obs ([3]; Indaziflam 21 g ai/ha alone): 0%
- Visual Weed Control (%) - 21 DAA Obs ([3]; Indaziflam 42 g ai/ha alone): 15%
- Visual Weed Control (%) - 28 DAA IPOHE Obs ([4]; Indaziflam 17.5 g ai/ha alone): 40%
- Visual Weed Control (%) - 28 DAA IPOHE Obs ([4]; Indaziflam 70 g ai/ha alone): 40%
- Visual Weed Control (%) - 28 DAA XANST Obs ([5]; Indaziflam 17.5 g ai/ha alone): 25%
- Visual Weed Control (%) - 28 DAA XANST Obs ([5]; Indaziflam 70 g ai/ha alone): 45%
- Visual Weed Control (%) - 27 DAA SETFA Obs [6]: 70%
